Our source for the TGI and GI50 values is PubChem BioAssay (NCI).

Structures are written as SMILES. Several values for one entry are separate records, joined by “and”; a condition that tells them apart may be missing. Equal entries are not always repeated.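 Five concentrations, 48 hours, 96-well plates. GI50 = concentration required for 50% inhibition of growth. TGI denotes the concentration required for complete inhibition of growth.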

Among the test systems are DMS 114 small cell lung; DMS 273 small cell lung; HT29 colon; KM20L2 colon; MALME-3M melanoma; NCI-H460 lung; NCI-H522 lung; SNB-78 CNS; U251 CNS; XF 498 CNS.
What all share (assay): NCI anticancer screen, dose series, 48 h

For `CC(SC1=CC(=O)c2c(O)ccc(O)c2C1=O)C(=O)O` (configuration not stated), the TGI was 44 µM in the test with DMS 114 small cell lung; greater than 100 µM in the test on DMS 273 small cell lung; greater than 100 µM in the test on HT29 colon; greater than 100 µM in the test with KM20L2 colon; greater than 64.6 µM in the test with MALME-3M melanoma; greater than 100 µM with NCI-H460 lung. For the same compound, the TGI in the test with NCI-H522 lung was 9.79 µM; in the test on SNB-78 CNS it was greater than 79.1 µM; in the test with U251 CNS, greater than 60.1 µM; with XF 498 CNS, greater than 82.2 µM.

As to `CC1=C(N2CC2)C(=O)c2nc3n(c2C1=O)CCC3O` (configuration not stated), the TGI is 2.68 µM with DMS 114 small cell lung; 1.68 µM in the test with DMS 273 small cell lung; 3.37 µM in the test on HT29 colon; 5.95 µM in the test with KM20L2 colon; 0.33 µM in the test with MALME-3M melanoma; 0.324 µM with NCI-H460 lung. The TGI was 0.262 µM with NCI-H522 lung, 0.131 µM in the test with SNB-78 CNS, 0.962 µM in the test with U251 CNS and 29.8 µM in the test on XF 498 CNS.

As to `CC1=C2N3C[C@@H](n4c(=O)n(C)c(=O)n43)C23CCC1n1c(=O)n(C)c(=O)n13`, the TGI in the test with DMS 114 small cell lung is 76.3 µM; in the test with DMS 273 small cell lung, greater than 100 µM; in the test on HT29 colon, greater than 100 µM; in the test with KM20L2 colon, greater than 100 µM; in the test on MALME-3M melanoma, greater than 100 µM; in the test with NCI-H460 lung it was greater than 100 µM. Moreover, the TGI in the test with SNB-78 CNS and with XF 498 CNS was greater than 100 µM throughout.

`CCCCS(=N)(=O)CC[C@H](N)C(=O)O` (some centres not stated): the TGI is greater than 5000 µM in the test on DMS 114 small cell lung; greater than 5000 µM in the test on DMS 273 small cell lung; greater than 10000 µM in the test with HT29 colon; greater than 5000 µM with KM20L2 colon; greater than 10000 µM in the test on MALME-3M melanoma; 5000 µM and > 10000 µM in the test with NCI-H460 lung. For the same compound, the TGI is 351 µM and 51.9 µM with NCI-H522 lung; greater than 5000 µM in the test on SNB-78 CNS; greater than 10000 µM in the test with U251 CNS; 604 µM with XF 498 CNS. The GI50 was greater than 10000 µM in the test on HT29 colon; greater than 8490 µM in the test with MALME-3M melanoma; greater than 3940 µM in the test on NCI-H460 lung; greater than 20.5 µM in the test on NCI-H522 lung; greater than 10000 µM in the test on U251 CNS.

Regarding `c1cncc(C2c3[nH]c4ccccc4c3CCN2CCN2CCCCC2)c1` (configuration not stated), the TGI in the test on DMS 114 small cell lung, with DMS 273 small cell lung, with HT29 colon, with KM20L2 colon, in the test with NCI-H460 lung and in the test with NCI-H522 lung was greater than 100 µM throughout. The TGI with SNB-78 CNS, in the test with U251 CNS and in the test with XF 498 CNS was greater than 100 µM each time.

For `Cn1c2ccccc2n2c3nc4ccccc4nc3c(C#N)c12`, the TGI with DMS 114 small cell lung is greater than 100 µM; in the test with DMS 273 small cell lung it was greater than 100 µM; in the test on HT29 colon, greater than 100 µM; in the test with MALME-3M melanoma it was greater than 100 µM; with NCI-H460 lung it was greater than 100 µM; in the test with NCI-H522 lung, greater than 96.6 µM. For the same compound, the TGI in the test with U251 CNS and in the test on XF 498 CNS was greater than 100 µM each time.

`COC(=O)c1ccc(OCc2ccc3oc(=O)c(-c4ccccc4)nc3c2)cc1`: the TGI with DMS 114 small cell lung, in the test on DMS 273 small cell lung, with HT29 colon, in the test with MALME-3M melanoma, in the test on NCI-H460 lung and with NCI-H522 lung was greater than 100 µM in each case. The TGI in the test with SNB-78 CNS, in the test on U251 CNS and in the test on XF 498 CNS was greater than 100 µM throughout.

Take `O=C(c1ccco1)N(C(=S)N1CCN(c2ccccc2)CC1)c1ccccc1`: the TGI in the test on DMS 114 small cell lung, in the test on DMS 273 small cell lung, in the test with HT29 colon, in the test on KM20L2 colon, in the test with MALME-3M melanoma and with NCI-H460 lung was greater than 100 µM each time. Moreover, the TGI with NCI-H522 lung, with SNB-78 CNS and in the test with U251 CNS was greater than 100 µM each time.

For the compound `CCOC(=O)C(=O)Nc1c(C)cccc1CC`, the TGI in the test on DMS 114 small cell lung, with HT29 colon, in the test with KM20L2 colon, in the test with MALME-3M melanoma, with NCI-H460 lung and in the test with NCI-H522 lung was greater than 100 µM in each case. For the same compound, the TGI with SNB-78 CNS, in the test with U251 CNS and in the test on XF 498 CNS was greater than 100 µM throughout.

Consider `COc1cccc2c1C1=CC(=O)CCC1C(C)(C)O2` (configuration not stated), for which the TGI was 61.5 µM in the test on DMS 114 small cell lung; greater than 100 µM with DMS 273 small cell lung; greater than 100 µM in the test on HT29 colon; greater than 100 µM in the test with KM20L2 colon; greater than 100 µM in the test with MALME-3M melanoma; greater than 100 µM in the test on NCI-H460 lung. In addition, the TGI in the test on NCI-H522 lung, with SNB-78 CNS and in the test with U251 CNS was greater than 100 µM in each case.

For the compound `Cc1cc2occ(C)c(=O)c2c2c1OC(C)(C)S2`, the TGI in the test on DMS 114 small cell lung, in the test with DMS 273 small cell lung, in the test with HT29 colon, in the test on KM20L2 colon, in the test with MALME-3M melanoma and with NCI-H460 lung was greater than 100 µM each time. For the same compound, the TGI with NCI-H522 lung, in the test with U251 CNS and in the test on XF 498 CNS was greater than 100 µM in each case.

Turning to `CCc1cccc(C)c1NC(=O)CC1Sc2ccccc2NC1=O` (configuration not stated), the TGI was greater than 100 µM with DMS 114 small cell lung; greater than 100 µM in the test on DMS 273 small cell lung; greater than 100 µM in the test on KM20L2 colon; greater than 100 µM in the test on MALME-3M melanoma; greater than 100 µM in the test on NCI-H460 lung; 61.5 µM in the test on NCI-H522 lung. For the same compound, the TGI with SNB-78 CNS, in the test on U251 CNS and with XF 498 CNS was greater than 100 µM in each case.

`Nc1ccc2c(c1)[O][Sn]([c]1ccccc1)([c]1ccccc1)[O]C2=O`: the GI50 in the test with DMS 114 small cell lung is 6.68 µM; in the test on DMS 273 small cell lung, 16.6 µM; with HT29 colon, 12.1 µM; in the test with KM20L2 colon it was 18 µM; with MALME-3M melanoma it was 3.18 µM; in the test with NCI-H460 lung, 16 µM. In addition, the GI50 in the test on NCI-H522 lung is 0.592 µM; in the test with SNB-78 CNS it was 5.31 µM; in the test with U251 CNS, 8.6 µM. Further, the TGI was determined as 18.7 µM in the test on DMS 114 small cell lung; 31.1 µM with DMS 273 small cell lung; 26.5 µM with HT29 colon; 31.9 µM with KM20L2 colon; 8.22 µM in the test with MALME-3M melanoma; 33.6 µM in the test on NCI-H460 lung. Further, the TGI with NCI-H522 lung was found to be 2.36 µM; with SNB-78 CNS it was 23.4 µM; in the test on U251 CNS it was 16.3 µM.
